For 1 compound, IC50 results are on record in patent US8552161B2, “Saponin compounds, methods of preparation thereof, use thereof and pharmaceutical compositions” (Uniwersytet W Bialymstoku, priority 2009, dated 2013).

Molecules are shown by their SMILES.

Test [1] concerns human glioblastoma cell line T98. The test is described as follows: Calcein AM cytotoxicity assay, T98. It is filed as cell-based. The note with it: 72 h, means ± SD, three independent experiments in triplicate. As for the experimental part:
Stock solutions (10 mmol/l) of the tested compounds were prepared by dissolving relevant quantity of the substance in DMSO. Dulbecco's modified Eagle's medium (DMEM, RPMI 1640, F-12 medium), fetal bovine serum (FBS), L-glutamine, penicillin, streptomycin were purchased from Sigma (MO, USA). Calcein AM was obtained from Molecular Probes (Invitrogen Corporation, CA, USA).
The screening cell lines (T-lymphoblastic leukaemia cell line CEM, breast carcinoma cell line MCF-7, cervical carcinoma cell line HeLa, human glioblastoma cell line T98, human malignant melanoma G-361, human osteogenic sarcoma cell line HOS, carcinomic human alveolar basal epithelial cells A549, human colon carcinoma cells HCT 116 and human fibroblasts BJ) were obtained from the American Type Culture Collection (Manassas, Va., USA). All cell lines were cultured in DMEM medium (Sigma, Mo., USA). Medium was supplemented with 10% heat-inactivated fetal bovine serum, 2 mmol/l L-glutamine and 1% penicillin-streptomycin. The cell lines were maintained under standard cell culture conditions at 37° C. and 5% CO2 in a humid environment. Cells were subcultured twice or three times a week using the standard trypsinization procedure.
Cytotoxic activities of the novel compounds, obtained according to this invention, were tested in vitro against following cancer cell lines: T-lymphoblastic leukemia cell line CEM; breast carcinoma cell line MCF7, lung carcinoma cell line A549, cervical carcinoma cell line HeLa, malignant melanoma cell line G-361, osteosarcoma cell line HOS, human glioblastoma cell line T98, human colon carcinoma cells HCT 116 and normal human fibroblasts BJ. All cell lines were cultured in DMEM medium (Sigma, Mo., USA) supplemented with 10% fetal calf serum, 2 mM glutamine, 100 U/ml penicillin and 100 μg/ml streptomycin, at 37° C. in a fully humidified atmosphere containing 5% CO2. Suspensions of these lines (ca. 1.0×10^5 cells/ml) were placed in 96-well microtitre plates and after 3 h of stabilization the tested compounds were added in serially diluted concentrations. Saponins were dissolved in dimethylsulfoxide (DMSO) before addition to cultures. Control cultures were treated with DMSO alone. The final concentration of DMSO in the reaction mixtures never exceeded 0.6%. Four-fold dilutions of the intended test concentration were added at time zero in 20 μl aliquots to the microtitre plate wells. Usually, each test compound was evaluated at six 4-fold dilutions and in routine testing; the highest well concentration was 50 μM, although this varied in a few cases, depending on the test compound. After 72 h of culture, the cells were incubated with Calcein AM solution (Molecular Probes) for 1 h. The fluorescence of viable cells was quantified using a Fluoroscan Ascent instrument (Microsystems). The percentage of surviving cells in each well was calculated from the equation […]=(ODdrug exposed well/mean ODcontrol wells)×100%. The IC50 value, the drug concentration lethal to 50% of the tumour cells, was calculated from the obtained dose-response curves.

Test [2] deals with T-lymphoblastic leukemia cell line CEM. Nature of the test: Calcein AM cytotoxicity assay, CEM. It is filed as cell-based. The note with it: Calcein AM assay, 72 h; means ± SD, three independent experiments in triplicate. As for the experimental part:
(§1) Stock solutions (10 mmol/l) of the tested compounds were prepared by dissolving relevant quantity of the substance in DMSO. […] Calcein AM was obtained from Molecular Probes (Invitrogen Corporation, CA, USA).
(§2) All cell lines were cultured in DMEM medium (Sigma, Mo., USA). Medium was supplemented with 10% heat-inactivated fetal bovine serum, 2 mmol/l L-glutamine and 1% penicillin-streptomycin. The cell lines were maintained under standard cell culture conditions at 37° C. and 5% CO2 in a humid environment. Cells were subcultured twice or three times a week using the standard trypsinization procedure.
(§3) All cell lines were cultured in DMEM medium (Sigma, Mo., USA) supplemented with 10% fetal calf serum, 2 mM glutamine, 100 U/ml penicillin and 100 μg/ml streptomycin, at 37° C. in a fully humidified atmosphere containing 5% CO2. Suspensions of these lines (ca. 1.0×10^5 cells/ml) were placed in 96-well microtitre plates and after 3 h of stabilization the tested compounds were added in serially diluted concentrations. Saponins were dissolved in dimethylsulfoxide (DMSO) before addition to cultures. Control cultures were treated with DMSO alone. The final concentration of DMSO in the reaction mixtures never exceeded 0.6%. Four-fold dilutions of the intended test concentration were added at time zero in 20 μl aliquots to the microtitre plate wells. Usually, each test compound was evaluated at six 4-fold dilutions and in routine testing; the highest well concentration was 50 μM, although this varied in a few cases, depending on the test compound. After 72 h of culture, the cells were incubated with Calcein AM solution (Molecular Probes) for 1 h. The fluorescence of viable cells was quantified using a Fluoroscan Ascent instrument (Microsystems).

The subject of test [3] is cervical carcinoma cell line HeLa. Nature of the test: Calcein AM cytotoxicity assay, HeLa. It counts as cell-based. The note with it: 72 h, means ± SD, three independent experiments in triplicate. As for the experimental part: as §1, §2, §3
For test [4], the system named is lung carcinoma cell line A549. The test is described as follows: Calcein AM cytotoxicity assay, A549. It is filed as cell-based, human. As to conditions: 72 h, means ± SD, three independent experiments in triplicate, read-out: IC50, A 549. On the procedure: as §1, §2, §3

Usually IC50 stands for the midpoint of a concentration-inhibition curve.

Take `C/C=C/C(=O)OC[C@@H](C)[C@@]1(O)[C@@H](O[C@@H]2OC[C@H](O)[C@H](O[C@@H]3OC[C@@H](O)[C@H](O)[C@H]3OC(=O)c3ccc(OC)cc3)[C@H]2OC(C)=O)C[C@H]2[C@@H]3CC=C4C[C@@H](O)CC[C@]4(C)[C@H]3CC[C@@]21C` [Compound 7, (20R)-21-O-[(E)-but-2-enoyl]-20-methylpregn-5-ene-3β,16β,17α,21-tetraol 16-O-{2-O-(4-methoxybenzoyl)-β-D-xylopyranosyl-(1→3)-2′-O-acetyl-α-L-arabinopyranoside}]: the IC50 is 940 ± 20 nM in test [1], 340 ± 40 nM in test [2], 1940 ± 50 nM in test [3] and 550 ± 200 nM in test [4].
